According to PubChem BioAssay (NCI):
Where “and” joins values, the source holds several entries; their conditions need not be identical. Equal entries are not always repeated.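 1) Cells in 96-well plates. 2) Compound, 48 h, 5 concentrations. 3) Linear interpolation between surrounding doses. 4) Unreached endpoint = highest concentration. The concentration for 50% growth inhibition is given as GI50. Definition used: TGI = concentration required for complete inhibition of growth.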

Legend:
Assay in all cases: inhibition of tumour cell growth, NCI panel, 48 h
COLO 205 colon = tested on: COLO 205 colon
SK-MEL-2 melanoma = tested on: SK-MEL-2 melanoma
OVCAR-4 ovarian = tested on: OVCAR-4 ovarian
NCI/ADR-RES ovarian = tested on: NCI/ADR-RES ovarian
MCF7 breast = tested on: MCF7 breast
MALME-3M melanoma = tested on: MALME-3M melanoma
IGROV1 ovarian = tested on: IGROV1 ovarian
HCT-116 colon = tested on: HCT-116 colon
RXF 393 renal = tested on: RXF 393 renal
HL-60(TB) leukemia = tested on: HL-60(TB) leukemia

| Compound | TGI (COLO 205 colon) | GI50 (SK-MEL-2 melanoma) [µM] | TGI (SK-MEL-2 melanoma) | GI50 (OVCAR-4 ovarian) [µM] | TGI (OVCAR-4 ovarian) | TGI (NCI/ADR-RES ovarian) | GI50 (MCF7 breast) [µM] | TGI (MCF7 breast) | GI50 (MALME-3M melanoma) [µM] | TGI (MALME-3M melanoma) | GI50 (IGROV1 ovarian) | TGI (IGROV1 ovarian) | GI50 (HCT-116 colon) [µM] | GI50 (RXF 393 renal) | TGI (RXF 393 renal) | GI50 (HL-60(TB) leukemia) [µM] | TGI (HL-60(TB) leukemia) | GI50 (COLO 205 colon) | GI50 (NCI/ADR-RES ovarian) [µM] | TGI (HCT-116 colon) |
| --- | --- | --- | --- | --- | --- | --- | --- | --- | --- | --- | --- | --- | --- | --- | --- | --- | --- | --- | --- | --- |
| C/C=C1\C[C@@H]2C(OC)Nc3cc(O)c(OC)cc3C(=O)N2C1 (some centres undefined) | 0.0212 µM | 0.00288 | 0.00713 µM and < 0.0159 µM | 0.00355 | < 0.0172 µM and 0.0101 µM | 0.0384 µM and < 0.0116 µM | 0.00692 | 2.83 µM | 0.00501 | 0.0148 µM | 0.0159 µM | 0.906 µM and 2.84 µM | 0.0172 | 0.00101 µM | 0.00219 µM | 0.00226 | 0.216 µM and 0.0852 µM |  |  |  |
| C=CCCC(O)c1ccc(CCCCCCCCCCC)o1 (centres undefined) | 35.3 µM | 17.6 | 37.1 µM |  |  | 35.5 µM | 20.3 | 50.9 µM | 15.6 | 33.8 µM | 16.5 µM | 32 µM | 18 | 18.5 µM | 36.5 µM | 39.2 | > 100 µM | 17.9 µM | 18.9 | 32.2 µM |
| CN1CCN(CCCN2c3ccccc3Sc3ccc(C(F)(F)F)cc32)CC1 | 3.15 µM and 3.65 µM and 9.3 µM | 2.34 | 4.26 µM and 15.4 µM and 15.6 µM | 3.22 | 12.5 µM and 21.6 µM and 26.6 µM | 4.61 µM and 25 µM and 25.5 µM | 1.77 | 3.29 µM and 18.7 µM | 1.69 | 3.28 µM and 3.66 µM and 6.98 µM | 2.19 µM and 3.77 µM and 9.9 µM | 4.98 µM and 11.9 µM and 23 µM | 1.78 | 1.78 µM and 10 µM and 4.08 µM | 4.62 µM and 23.1 µM and 15.5 µM | 2.78 | 4.92 µM and 17.7 µM and 22.7 µM | 1.64 µM and 1.8 µM and 3.87 µM | 1.91 | 3.26 µM and 17.5 µM and 20.3 µM |
| O=[N+]([O-])c1ccc(NN=C2c3ccccc3Cc3ccccc32)c([N+](=O)[O-])c1 | > 100 µM |  | > 43.4 µM |  | > 100 µM | > 100 µM |  | > 100 µM |  | > 100 µM |  | > 100 µM |  |  | > 100 µM |  | > 30 µM |  |  | > 100 µM |
| COc1cc(C2C(C(=O)OCc3ccccc3)=C(C)NC(C)=C2C(=O)OCc2ccccc2)cc(OC)c1OC |  |  |  | 3.39 | > 100 µM | > 100 µM | 2.66 | > 100 µM |  |  |  |  | 2.54 |  |  |  |  |  | 3.06 | > 100 µM |
| O=C1c2ccccc2CCC1(Br)Br | 2.06 µM | 3.13 | 11.3 µM | 1.48 | 2.97 µM | 17.3 µM | 1.56 | 3.89 µM | 1.06 | 2.75 µM | 2.59 µM | 5.98 µM | 0.888 | 1.68 µM | 3.32 µM | 2.04 | 5.22 µM | 0.671 µM | 3.4 | 2.23 µM |
| Cc1[nH]c2ccccc2c1C1=CC(=O)C=CC1=O | 5.43 µM | 12.3 | 28.9 µM | 4.2 | 15.3 µM | 28.4 µM | 9.9 | 28.8 µM | 7.45 | 27.8 µM | 12 µM | 27.2 µM | 10.5 | 10.6 µM | 22.9 µM |  |  | 2.48 µM | 10.9 | 24.8 µM |
| CNC(=O)c1c(NC(=O)c2ccc(C(C)C)cc2)sc2c1CCC(=O)C2 | 0.914 µM | 1.6 | 5.96 µM | 0.32 | 1.16 µM | 2.24 µM | 0.428 | 5.32 µM | 0.891 | 2.94 µM | 0.542 µM | 2.4 µM | 0.0892 | 0.289 µM | 1.38 µM | 0.303 | 2.15 µM | 0.288 µM | 0.461 | 1.34 µM |
| COc1ccc(NC(=O)CC(=O)n2nc(-c3ccccc3)c(N=Nc3ccccc3C)c2-c2ccccc2)cc1 | 99.8 µM |  | 56.9 µM |  | 59.5 µM | > 100 µM |  | > 100 µM |  | 81.9 µM |  | 46.2 µM |  |  | 33.4 µM |  | > 100 µM |  |  | 47.9 µM |
| CC(C)NCCCCCNc1cc(O)cc2cccnc12 | > 100 µM | > 100 | > 100 µM | 4.14 | > 100 µM | > 100 µM | 18.7 | > 100 µM |  | > 100 µM | 4.81 µM | > 100 µM | 67.9 | > 100 µM | > 100 µM | 0.751 | 4.36 µM | 1.88 µM | > 100 | > 100 µM |
| O=C(NCCCCCCNC(=O)NC1OCC(O)C(O)C1O)NC1OCC(O)C(O)C1O (centres undefined) | > 100 µM |  | > 100 µM |  | > 100 µM |  |  |  |  | > 100 µM |  | > 100 µM |  |  | > 100 µM |  | > 100 µM |  |  | > 100 µM |
| CC(=O)OCc1c(C)c2ccccc2n1C(C)=O | > 100 µM |  | 43.3 µM |  | > 100 µM |  |  |  |  | 73.7 µM |  | > 100 µM |  |  | 75.3 µM |  | 66.9 µM |  |  | > 100 µM |
| O=C(O)C1CCCCC1C(=O)Nc1nc2ccccc2[nH]1 (centres undefined) | > 100 µM |  | > 100 µM |  | > 100 µM | > 100 µM |  | > 100 µM |  | > 100 µM |  | > 100 µM |  |  | > 100 µM |  |  |  |  | > 100 µM |
| Nc1nc(Cl)nc2c1ncn2C1CCC(COP(=O)(O)OP(=O)(O)OP(=O)(O)O)O1 (centres undefined) | 41.7 µM |  |  |  | 77.8 µM | 55.8 µM |  | > 100 µM |  | > 100 µM |  | > 100 µM |  |  | 75 µM |  | 63.7 µM |  |  | > 100 µM |
| O=C1C2C3CCC(C2C(=O)N1CO)C1C2C(=O)N(CO)C(=O)C2C31 (centres undefined) | > 59.6 µM |  | > 100 µM |  | > 58.8 µM |  |  |  |  | > 100 µM |  | > 100 µM |  |  | > 68.6 µM |  | 31.1 µM |  |  | > 54.2 µM |
| O=c1[nH]c(=O)n(C2OC(CO)C(O)C2O)cc1OCc1ccccc1 (centres undefined) | > 85.2 µM |  | > 100 µM |  | > 100 µM |  |  |  |  | > 100 µM |  | > 100 µM |  |  | > 83.5 µM |  | > 68.6 µM |  |  | > 83.2 µM |
| Cc1nn(-c2ccccc2)c(C)c1/C=N/N1CCN(Cc2ccccc2)CC1 | > 100 µM | 60.7 | > 100 µM |  |  | > 100 µM | 31 | > 100 µM |  |  |  |  | 28 | > 100 µM | > 100 µM | 28.7 | 63 µM | 41 µM | 50.3 | > 100 µM |
